Data taken from ChEMBL document CHEMBL3885861, “Open TG-GATES”.

Organism: Rattus norvegicus
Test: Open TG-GATES - Regimen: Single
Format: toxicity, organism-based, Sprague-Dawley
Parameters: regimen Single, gender Male, age 6 weeks
Details: in vivo, po, 0 mg/kg, route gavage, dose level Control; for APTT / Bas / Eos / Fbg / Hb / Ht / Lym / MCH / MCHC / MCV / Mono / Neu / PT / Plat / RBC / Ret / WBC: tissue Blood; for KIDNEY_L / KIDNEY_R / KIDNEY_TOTAL: tissue Kidney; for LIVER: tissue Liver; for A/G / ALP / ALT / AST / BUN / CRE / Ca / Cl / DBIL / GLC / IP / K / LDH / Na / PL / RALB / TBIL / TC / TG / TP / gamma-GTP: tissue Plasma

SMILES: S=C=Nc1cccc2ccccc12 [1-NAPHTHYLISOTHIOCYANATE]
- TERMINAL_BW (3 h): 224.9 g
- APTT (3 h): 18.6 s
- Bas (3 h): 0%
- Eos (3 h): 1%
- Fbg (3 h): 223 mg/dL
- Hb (3 h): 13.7 g/dL
- Ht (3 h): 37.8%
- Lym (3 h): 78%
- MCH (3 h): 22.1 pg
- MCHC (3 h): 36.2%
- MCV (3 h): 61 fL
- Mono (3 h): 2.6%
- Neu (3 h): 17.6%
- PT (3 h): 11.9 s
- Plat (3 h): 124.1 x10_4/uL
- RBC (3 h): 619.8 x10_4/ul
- Ret (3 h): 8.2%
- WBC (3 h): 101.9 x10_2/uL
- KIDNEY_L (3 h): 1 g
- KIDNEY_R (3 h): 1 g
- KIDNEY_TOTAL (3 h): 2 g
- LIVER (3 h): 10.2 g
- A/G (3 h): 1.6
- ALP (3 h): 937 IU/L
- ALT (3 h): 37.6 IU/L
- AST (3 h): 73 IU/L
- BUN (3 h): 11.2 mg/dL
- CRE (3 h): 0.4 mg/dL
- Ca (3 h): 10.9 mg/dL
- Cl (3 h): 103.4 meq/L
- DBIL (3 h): 0.07 mg/dL
- GLC (3 h): 200.8 mg/dL
- IP (3 h): 9.4 mg/dL
- K (3 h): 3.9 meq/L
- LDH (3 h): 189.2 IU/L
- Na (3 h): 141.6 meq/L
- PL (3 h): 161.6 mg/dL
- RALB (3 h): 3.4 g/dL
- TBIL (3 h): 0.1 mg/dL
- TC (3 h): 81 mg/dL
- TG (3 h): 82.2 mg/dL
- TP (3 h): 5.5 g/dL
- gamma-GTP (3 h): 1 IU/L
- TERMINAL_BW (6 h): 218.1 g
- APTT (6 h): 18.7 s
- Bas (6 h): 0.2%
- Eos (6 h): 0.8%
- Fbg (6 h): 232.2 mg/dL
- Hb (6 h): 13.4 g/dL
- Ht (6 h): 37.2%
- Lym (6 h): 76%
- MCH (6 h): 22 pg
- MCHC (6 h): 36%
- MCV (6 h): 61.2 fL
- Mono (6 h): 3.4%
- Neu (6 h): 18.4%
- PT (6 h): 11.8 s
- Plat (6 h): 128 x10_4/uL
- RBC (6 h): 609.2 x10_4/ul
- Ret (6 h): 7.2%
- WBC (6 h): 106.9 x10_2/uL
- KIDNEY_L (6 h): 1 g
- KIDNEY_R (6 h): 1 g
- KIDNEY_TOTAL (6 h): 2 g
- LIVER (6 h): 9.6 g
- A/G (6 h): 1.8
- ALP (6 h): 1087 IU/L
- ALT (6 h): 35.6 IU/L
- AST (6 h): 71.8 IU/L
- BUN (6 h): 10 mg/dL
- CRE (6 h): 0.4 mg/dL
- Ca (6 h): 10.6 mg/dL
- Cl (6 h): 103.8 meq/L
- DBIL (6 h): 0.07 mg/dL
- GLC (6 h): 192 mg/dL
- IP (6 h): 10 mg/dL
- K (6 h): 3.8 meq/L
- LDH (6 h): 167.6 IU/L
- Na (6 h): 141.8 meq/L
- PL (6 h): 142.8 mg/dL
- RALB (6 h): 3.5 g/dL
- TBIL (6 h): 0.1 mg/dL
- TC (6 h): 76.2 mg/dL
- TG (6 h): 63.8 mg/dL
- TP (6 h): 5.4 g/dL
- gamma-GTP (6 h): 1 IU/L
- TERMINAL_BW (9 h): 216.9 g
- APTT (9 h): 17.6 s
- Bas (9 h): 0.2%
- Eos (9 h): 0.8%
- Fbg (9 h): 234.6 mg/dL
- Hb (9 h): 13.3 g/dL
- Ht (9 h): 36.8%
- Lym (9 h): 75%
- MCH (9 h): 21.7 pg
- MCHC (9 h): 36.1%
- MCV (9 h): 60.1 fL
- Mono (9 h): 2.2%
- Neu (9 h): 20.8%
- PT (9 h): 12.2 s
- Plat (9 h): 121.1 x10_4/uL
- RBC (9 h): 612 x10_4/ul
- Ret (9 h): 6.9%
- WBC (9 h): 90.1 x10_2/uL
- KIDNEY_L (9 h): 0.9 g
- KIDNEY_R (9 h): 1 g
- KIDNEY_TOTAL (9 h): 1.9 g
- LIVER (9 h): 8.8 g
- A/G (9 h): 1.8
- ALP (9 h): 908.4 IU/L
- ALT (9 h): 28.8 IU/L
- AST (9 h): 57.4 IU/L
- BUN (9 h): 10.8 mg/dL
- CRE (9 h): 0.4 mg/dL
- Ca (9 h): 10.7 mg/dL
- Cl (9 h): 103.6 meq/L
- DBIL (9 h): 0.07 mg/dL
- GLC (9 h): 201.4 mg/dL
- IP (9 h): 10.3 mg/dL
- K (9 h): 4 meq/L
- LDH (9 h): 145.6 IU/L
- Na (9 h): 141.8 meq/L
- PL (9 h): 139 mg/dL
- RALB (9 h): 3.5 g/dL
- TBIL (9 h): 0.1 mg/dL
- TC (9 h): 74.4 mg/dL
- TG (9 h): 50.8 mg/dL
- TP (9 h): 5.5 g/dL
- gamma-GTP (9 h): 1 IU/L
- TERMINAL_BW (24 h): 234.7 g
- APTT (24 h): 17.8 s
- Bas (24 h): 0.4%
- Eos (24 h): 0.8%
- Fbg (24 h): 222.8 mg/dL
- Hb (24 h): 13.4 g/dL
- Ht (24 h): 37.5%
- Lym (24 h): 81.6%
- MCH (24 h): 22.2 pg
- MCHC (24 h): 35.6%
- MCV (24 h): 62.5 fL
- Mono (24 h): 3%
- Neu (24 h): 13.6%
- PT (24 h): 11.7 s
- Plat (24 h): 128.7 x10_4/uL
- RBC (24 h): 601 x10_4/ul
- Ret (24 h): 6.6%
- WBC (24 h): 91.3 x10_2/uL
- KIDNEY_L (24 h): 1 g
- KIDNEY_R (24 h): 1 g
- KIDNEY_TOTAL (24 h): 2 g
- LIVER (24 h): 10.8 g
- A/G (24 h): 1.6
- ALP (24 h): 1087.6 IU/L
- ALT (24 h): 37.8 IU/L
- AST (24 h): 75.8 IU/L
- BUN (24 h): 15.2 mg/dL
- CRE (24 h): 0.4 mg/dL
- Ca (24 h): 10.8 mg/dL
- Cl (24 h): 103.6 meq/L
- DBIL (24 h): 0.062 mg/dL
- GLC (24 h): 188.8 mg/dL
- IP (24 h): 7.6 mg/dL
- K (24 h): 3.9 meq/L
- LDH (24 h): 214.6 IU/L
- Na (24 h): 141.6 meq/L
- PL (24 h): 140.4 mg/dL
- RALB (24 h): 3.4 g/dL
- TBIL (24 h): 0.1 mg/dL
- TC (24 h): 70.8 mg/dL
- TG (24 h): 100.2 mg/dL
- TP (24 h): 5.6 g/dL
- gamma-GTP (24 h): 1.2 IU/L
